We go through three compounds from US6399560B1, “Biocide and biocidal cloth containing a metal pyridinethione and additional biocide” (Novapharm Research (Australia) Pty Ltd., priority 1997, dated 2002).

The subject of one data set is Fish. The note with it: in vivo; cited from earlier work.
The conditions of data set [1]: in vivo; cited from earlier work.
The conditions of data set [2]: acute toxicity, cited from earlier work; for LD50 Subcut: subcutaneous.
For data set [3] the following is noted: cited from earlier work.
Data set [4] deals with gram positive microorganisms. The conditions noted are these: cited from earlier work.
A further data set has as its system Pseudomonas Aeruginosa. Nature of the data set: Effect of biocide-impregnated fabric on Pseudomonas Aeruginosa population. It counts as cell-based. The conditions noted are these: zinc pyridinethione 0.85%, dichlorophen 0.85%, combination 0.5% + 0.5% of dry fabric weight. The text has this: A biocidal cloth according to the invention was subjected to a standard quantitative test for microorganisms, “Assessment of Antibacterial Finishes on Textile Materials”: Test Method AATCC 100-1993. This test is specifically designed for the assessment of the biocidal properties of fabric treatments. These treatments are designed to kill microorganisms within the fabric, rather than on surfaces which come into contact with the fabric.
The weights are given relative to the weight of dry fabric.

For data set [5] the following is noted: cited from earlier work; for Oxidising Agents: compatibility with oxidising agents; for Reducing Agents: compatibility with reducing agents.
A further data set relates to gram negative bacteria. The conditions noted are these: cited from earlier work.

Read-outs that look alike come from different tables or passages of the source.

Regarding `Oc1ccc(Cl)cc1Cc1cc(Cl)ccc1O` [DICHLOROPHEN, dichlorophen], the “Fish Toxicity” value with Fish was 23 mg/lt. In addition, the Teratogenicity result in data set [1] was “no effect”. In addition, in data set [2], the “LD 50 IV” value is 17 mg/kg, the “LD50 Dermal” value is given as 5000 mg/kg, the “LD50 Oral” value is 3300 mg/kg and the “LD50 Subcut” value is on record as over 3000 mg/kg. In addition, in data set [3] (in vivo), the Irritancy dermal result is on record as “Slight dermal” and the Irritancy eye result is “Moderate eye”. In data set [4], the “Effectiveness against gram positive” value was “particularly effective”. In addition, in the data set with Pseudomonas Aeruginosa, the “Change in bacterial population, DAY 1 (positive = increase, negative = decrease)” value is listed as “+0.439” and the “Change in bacterial population, DAY 2 (positive = increase, negative = decrease)” value is recorded as “+2.12”. Further, in data set [5], the “Oxidising Agents” value is reported as “incompatible” and the “Reducing Agents” value was “no effect”. Moreover, in the data set on gram negative bacteria, the “Effectiveness against gram negative” value is “some grain negative activity”.
In the case of `Oc1cc(Cl)ccc1Oc1ccc(Cl)cc1Cl` [Triclosan, triclosan], in data set [4], the “Effectiveness against gram positive” value is “particularly effective”. Also, the “Effectiveness against gram negative” value with gram negative bacteria is on record as “some grain negative activity”.
In the case of zinc pyridinethione, the Teratogenicity result in data set [1] is listed as “reduced wt”. In addition, in data set [2], the “LD 50 IV” value is given as 10 mg/kg, the “LD50 Dermal” value is 100 mg/kg, the “LD50 Oral” value was 160 mg/kg and the “LD50 Subcut” value is 730 mg/kg. For the same compound, the Irritancy dermal result in data set [3] (dermal / skin) was “Moderate dermal”. Further, the Irritancy dermal result in data set [3] (dermal / skin, listed as zinc pyridinethione) is recorded as “mildly irritating”. The Irritancy eye entry in data set [3] (eye) is “Severe eye”. For the same compound, in data set [3] (eye, listed as zinc pyridinethione), the Irritancy eye result is “severely so”. Besides, in data set [4], the “Effectiveness against gram positive” value was “effective”. Besides, in the data set with Pseudomonas Aeruginosa, the “Change in bacterial population, DAY 1 (positive = increase, negative = decrease)” value is given as “+0.845” and the “Change in bacterial population, DAY 2 (positive = increase, negative = decrease)” value is “+0.35”. Further, in data set [5], the “Oxidising Agents” value is “decomposes” and the “Reducing Agents” value is recorded as “decomposes”. Moreover, in the data set with gram negative bacteria, the “Effectiveness against gram negative” value is “limited effectiveness”.
